In patent US6569878B1, “Substituted 4-amino-thiazol-2-yl compounds as cyclin-dependent kinase inhibitors” (Agouron Pharmaceuticals Inc., priority 1997, dated 2003):
Read-outs that look alike come from different tables or passages of the source.

How the values were obtained:
[1] = biological target: T1, complex of human CDK4 and cyclin D3 (Homo sapiens, UniProt P11802); test: Inhibition of CDK4/cyclin D retinoblastoma kinase activity (D-type cyclin is D3); format: biochemical; settings: superscript a: D-type cyclin is D3; apparent Ki; read-out: Ki CDK 4/D
T1 construct: made in house; host or cells: insect cells, co-infected with baculovirus
Protocol: Cyclin-dependent kinase activity was measured by quantifying the enzyme-catalyzed, time-dependent incorporation of radioactive phosphate from [^32P]ATP or [^33P]ATP into a protein substrate. […] Reactions were initiated with enzyme, incubated at 30° C., and terminated after 20 minutes by the addition of ethylenediaminetetraacetic acid (EDTA) to 250 mM. […] Radioactivity was quantified by exposing the dried membranes to a phosphorimager.
(§1) Apparent Ki values were measured by assaying enzyme activity in the presence of different inhibitor compound concentrations and subtracting the background radioactivity measured in the absence of enzyme. The kinetic parameters (kcat, Km for ATP) were measured for each enzyme under the usual assay conditions by determining the dependence of initial rates on ATP concentration. Inhibition data were fit to an equation for competitive inhibition using Kaleidagraph (Synergy Software), or were fit to an equation for competitive tight-binding inhibition using the software KineTic (BioKin, Ltd.).
Phosphorylated Rb substrate was captured by microfiltration on a nitrocellulose membrane and quantified using a phosphorimager as described above. For measurement of tight-binding inhibitors, the enzyme complex concentration was lowered to 5 nM, and the assay duration was extended to 60 minutes, during which the time-dependence of product formation was linear.

CDK2/cyclin A = biological target: T2, CDK2/cyclin A (Homo sapiens, UniProt P24941); test: Inhibition of CDK2/cyclin A retinoblastoma kinase activity; format: biochemical; settings: read-out: Ki CDK 2/A
T2 construct: made in house; host or cells: CDK2: insect cells (baculovirus); cyclin A: E. coli, then limited proteolysis
Protocol: Cyclin-dependent kinase activity was measured by quantifying the enzyme-catalyzed, time-dependent incorporation of radioactive phosphate from [^32P]ATP or [^33P]ATP into a protein substrate. Unless noted otherwise, assays were performed in 96-well plates in a total volume of 50 μL, in the presence of 10 mM HEPES (N-[2-hydroxyethyl]piperazine-N′-[2-ethanesulfonic acid]) (pH 7.4), 10 mM MgCl2, 25 μM adenosine triphosphate (ATP), 1 mg/mL ovalbumin, 5 μg/mL leupeptin, 1 mM dithiothreitol, 10 mM β-glycerophosphate, 0.1 mM sodium vanadate, 1 mM sodium fluoride, 2.5 mM ethylene glycol-bis(β-aminoethyl ether)-N,N,N′N′-tetraacetic acid (EGTA), 2% (v/v) dimethylsulfoxide, and 0.03-0.4 μCi [^32/33P]ATP per reaction. Reactions were initiated with enzyme, incubated at 30° C., and terminated after 20 minutes by the addition of ethylenediaminetetraacetic acid (EDTA) to 250 mM. The phosphorylated substrate was then captured on a nitrocellulose or phosphocellulose membrane using a 96-well filtration manifold, and unincorporated radioactivity was removed by repeated washing with 0.85% phosphoric acid. Radioactivity was quantified by exposing the dried membranes to a phosphorimager.
as §1
CDK2 was purified using published methodology (Rosenblatt et al., “Purification and Crystallization of Human Cyclin-dependent Kinase 2,” J. Mol. Biol., vol. 230, 1993, pp. 1317-1319) from insect cells that had been infected with a baculovirus expression vector. […] Purified, proteolyzed cyclin A was included in the assay at a three- to five-fold molar excess to CDK2. Alternatively, a complex of CDK2 and proteolyzed cyclin A was prepared and purified by gel filtration. The substrate for this assay was the same Rb substrate fragment used for the CDK4 assays, and the methodology of the CDK2/cyclin A and the CDK4/cyclin D3 assays was essentially the same, except that CDK2 was present at 150 nM or 5 nM. Ki values were measured as described above.

HCT116 = test: Inhibition of cell growth, MTT assay, HCT116; format: cell-based, human; settings: Homo sapiens, HCT-116
Protocol: (§2) The water-insoluble purple formazan product was then detected spectrophotometrically. […] Plates were incubated for four hours before addition of inhibitor compounds. Different concentrations of inhibitor compounds were added in 0.5% (v/v) dimethylsulfoxide (15 μL/well), and cells were incubated at 37° C. (5% CO2) for four to six days (depending on cell type). At the end of the incubation, MTT was added to a final concentration of 0.2 mg/mL, and cells were incubated for 4 hours more at 37° C. After centrifugation of the plates and removal of medium, the absorbance of the formazan (solubilized in dimethylsulfoxide) was measured at 540 nm.

U2-OS = test: Inhibition of cell growth, MTT assay, U2-OS; format: cell-based; settings: for IC50 / IC90: Homo sapiens, U2OS
Protocol: as §2

Saos-2 = test: Inhibition of cell growth, MTT assay, Saos-2; format: cell-based; settings: Homo sapiens; Saos-2, MTT assay
Protocol: as §2

T1 sequence (P11802 whole entry): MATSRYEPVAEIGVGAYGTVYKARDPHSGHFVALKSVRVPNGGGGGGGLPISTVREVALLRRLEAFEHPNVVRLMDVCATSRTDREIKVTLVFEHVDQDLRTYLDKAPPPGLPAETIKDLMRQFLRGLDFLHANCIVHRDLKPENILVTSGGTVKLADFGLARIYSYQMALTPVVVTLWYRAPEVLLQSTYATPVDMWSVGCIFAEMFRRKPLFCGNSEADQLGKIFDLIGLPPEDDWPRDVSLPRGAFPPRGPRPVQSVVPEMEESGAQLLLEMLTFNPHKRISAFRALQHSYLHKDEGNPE
T1 sequence (P30281 whole entry partner): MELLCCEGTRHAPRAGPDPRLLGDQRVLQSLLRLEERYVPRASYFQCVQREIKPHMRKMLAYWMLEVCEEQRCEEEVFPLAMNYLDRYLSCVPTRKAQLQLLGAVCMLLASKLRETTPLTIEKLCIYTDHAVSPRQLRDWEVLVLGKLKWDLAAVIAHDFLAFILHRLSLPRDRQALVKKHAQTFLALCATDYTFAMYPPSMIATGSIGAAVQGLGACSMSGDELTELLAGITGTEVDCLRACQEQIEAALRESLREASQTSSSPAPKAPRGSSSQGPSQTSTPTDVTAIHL

SMILES | Ki [1] | Ki (CDK2/cyclin A) | IC50 (HCT116) | IC90 (HCT116) | IC50 (U2-OS) | IC90 (U2-OS) | Ki (CDK2/cyclin A; μM) | IC50 (Saos-2) | IC90 (Saos-2) | % inhibition of growth in parentheses after >25 (U2-OS; concentration not given)
Nc1nc(Nc2ccc3nc[nH]c3c2)sc1C(=O)c1c(Cl)cccc1Cl [C(52), [4-Amino-2-(1H-benzoimidazol-6-ylamino)-thiazol-5-yl]-(2,6-dichloro-phenyl)-methanone] | 0.011 µM | 0.105 µM | 8.5 µM | 17 µM | 15 µM | 23 µM |  | 9 µM | 22 µM | 
Cc1ncsc1C(=O)c1sc(Nc2ccc(S(N)(=O)=O)cc2)nc1N [C(47), 4-[4-Amino-5-(4-methyl-thiazole-5-carbonyl)-thiazol-2-ylamino]-benzenesulfonamide] | 0.03 µM | 0.026 µM | 4.2 µM | 7.8 µM | 10 µM | 20 µM |  | 2.5 µM | 5.1 µM | 
COc1ccc(Nc2nc(N)c(C(=O)c3ccccc3I)s2)cc1 [C(12), [4-Amino-2-(4-methoxy-phenylamino)-thiazol-5-yl]-(2-iodo-phenyl)-methanone] | 0.027 µM | 0.67 µM | 2 µM | 5 µM | 1.9 µM | 6 µM |  | 2.1 µM | 4.8 µM | 
Cc1ccc(C(=O)c2sc(Nc3ccc(S(N)(=O)=O)cc3)nc2N)c(C)c1 [C(35), 4-[4-Amino-5-(2,4-dimethyl-benzoyl)-thiazol-2-ylamino]-benzenesulfonamide] | 0.011 µM | 0.023 µM | 9 µM | 19 µM | 12 µM | 22 µM |  | 8 µM | 20 µM | 
Cc1ccsc1C(=O)c1sc(Nc2ccc3nc[nH]c3c2)nc1N [C(19), [4-Amino-2-(1H-benzoimidazol-6-ylamino)-thiazol-5-yl]-(3-methyl-thiophen-2-yl)-methanone] | 0.0158 µM | 0.277 µM | 9 µM | 23 µM | 15 µM | > 25 µM |  | 7 µM | 18 µM | 77%
Cc1c(C(=O)c2sc(Nc3ccc4nc[nH]c4c3)nc2N)ncn1C [C(74), [4-Amino-2-(1H-benzoimidazol-6-ylamino)-thiazol2-5-yl]-(1,5-dimethyl-1H-imidazol-4-yl)-methanone] | 4.8 µM |  |  |  |  |  | 10.6 µM |  |  | 
CCOC(=O)CC(C)Nc1nc(N)c(C(=O)c2sccc2C)s1 (racemic) [C(46), Ethyl 3RS-[4-Amino-5-(3-methyl-thiophene-2-carbonyl)-thiazol-2-ylamino]-butyrate] | 0.244 µM | 1.79 µM |  |  |  |  |  |  |  | 
CC(C)(C)OC(=O)N1CCN(c2ccc(Nc3nc(N)c(C(=O)c4c(Cl)cccc4Cl)s3)cc2)CC1 [C(105), 4-Amino-2-[4-(1-tert-butoxycarbonyl-piperazine-4-yl)-phenylamino]-thiazol-5-yl-(2,6-dichlorophenyl)-methanone] | 0.06 µM | 1.06 µM |  |  |  |  |  |  |  | 
Cc1cccc(Br)c1C(=O)c1sc(Nc2ccc3nc[nH]c3c2)nc1N [C(66), [4-Amino-2-(1H-benzoimidazol-6-ylamino)-thiazol-5-yl]-(2-bromo-6-methyl-phenyl)-methanone] | 0.053 µM | 0.574 µM |  |  |  |  |  |  |  | 
CCOC(=O)c1ccc(Nc2nc(N)c(C(=O)c3c(Cl)cccc3Cl)s2)cc1 [C(56), Ethyl 4-[4-Amino-5-(2,6-dichloro-benzoyl)-thiazol-2-ylamino]-benzoate] | 0.195 µM | 1.02 µM |  |  |  |  |  |  |  | 

More lines, main results first:

Ki [1] | Ki (CDK2/cyclin A) | IC50 (HCT116) | IC90 (HCT116) | IC50 (U2-OS) | IC90 (U2-OS) | Ki (CDK2/cyclin A; μM) | SMILES | IC50 (Saos-2) | IC90 (Saos-2) | % inhibition of growth in parentheses after >25 (U2-OS; concentration not given)
0.0138 µM | 0.0125 µM | 2.5 µM | 7 µM | 7.9 µM | 12 µM |  | Nc1nc(Nc2ccc(S(N)(=O)=O)cc2)sc1C(=O)c1c(Cl)cc(Cl)cc1Cl [C(107), 4-[4-Amino-5-(2,4,6-trichloro-benzoyl)-thiazol-2-yl-amino]-benzenesulfonamide] | 5.7 µM | 12 µM | 
0.0068 µM | 0.081 µM | 4.7 µM | 18 µM | 19 µM | > 25 µM |  | Nc1nc(Nc2ccc3nc[nH]c3c2)sc1C(=O)c1c(Cl)cc(Br)c(N)c1Cl [C(91), [4-Amino-2-(1H-benzoimidazol-6-ylamino)-thiazol-5-yl]-(3-amino-4-bromo-2,6-dichloro-phenyl)-methanone] | 5.9 µM | 23 µM | 
0.0173 µM | 0.238 µM | 3.8 µM | 8 µM | 8 µM | 19 µM |  | NC(=O)c1ccc(Nc2nc(N)c(C(=O)c3c(F)cccc3C(F)(F)F)s2)cc1 [C(113), 4-[4-Amino-5-(2-fluoro-6-trifluoromethyl-benzoyl)-thiazol-2-ylamino]-benzamide] | 2.8 µM | 9 µM | 
0.021 µM | 0.216 µM | 1.7 µM | 3.8 µM | 3 µM | 5.5 µM |  | CC(=O)N1CCN(c2ccc(Nc3nc(N)c(C(=O)c4c(F)cccc4F)s3)cc2)CC1 [C(111), 2-[4-(1-Acetyl-piperazin-4-yl)-phenylamino]-4-amino-thiazol-5-yl-(2,6-difluorophenyl)-methanone] | 3.8 µM | 5.9 µM | 
0.023 µM | 0.408 µM |  |  |  |  |  | CC(=O)N1CCN(c2ccc(Nc3nc(N)c(C(=O)c4cc(C)sc4C)s3)cc2)CC1 [C(112), 2-[4-(1-Acetyl-piperazin-4-yl)-phenylamino]-4-amino-thiazol-5-yl-(2,5-dimethyl-thiophen-3-yl)-methanone] |  |  | 
0.11 µM | 0.595 µM |  |  |  |  |  | CN(CC(=O)OC(C)(C)C)c1ccc(Nc2nc(N)c(C(=O)c3c(F)cccc3F)s2)cc1 [C(103), tert-Butyl({4-[4-Amino-5-(2,6-difluoro-benzoyl)-thiazol-2-ylamino]-phenyl}-methyl-amino)-acetate] |  |  | 
0.023 µM | 0.178 µM |  |  |  |  |  | Nc1ccc(Cl)c(C(=O)c2sc(Nc3ccc4nc[nH]c4c3)nc2N)c1Cl [G, [4-Amino-2-(1H-benzoimidazol-6-ylamino)-thiazol-5-yl]-(3-amino-2,6-dichloro-phenyl)-methanone] |  |  | 
0.023 µM | 1.08 µM |  |  |  |  |  | Nc1nc(Nc2ccc(N3CCOCC3)cc2)sc1C(=O)c1c(Cl)ccc([N+](=O)[O-])c1Cl [C(75), [4-Amino-2-(4-morpholin-4-yl-phenylamino)-thiazol-5-yl]-(2,6-dichloro-3-nitro-phenyl)-methanone] |  |  | 
0.38 µM | 4.17 µM |  |  |  |  |  | Cc1ccc(C(=O)c2sc(Nc3ccccc3)nc2N)cc1 [I(12)] |  |  | 
0.285 µM | 1.04 µM |  |  |  |  |  | Nc1nc(Nc2ccc3nc[nH]c3c2)sc1C(=O)c1cc(Cl)sc1Cl [C(93), [4-Amino-2-(1H-benzoimidazol-6-ylamino)-thiazol-5-yl]-(2,5-dichloro-thiophen-3-yl)-methanone] |  |  | 
0.639 µM | 0.28 µM |  |  |  |  |  | Nc1nc(Nc2ccc(C(=O)O)cc2)sc1C(=O)c1c(Cl)cccc1Cl [I(25)] |  |  | 
